Test results taken from PMC12508156, “Non-canonical dihydrolipoyl transacetylase promotes chemotherapy resistance via mitochondrial tetrahydrofolate signaling” (Nature Communications, 2025).
“And” between values parts separate entries of the source, which are not always exact repeats. Equal entries are not always repeated.

Legend:
A549cisR cells = conditions: read-out: cisplatin IC50; A549cisR cells generated by continuous exposure to cisplatin; cited from earlier work
Procedure: (§1) The RNAi library contains 328 shRNA clones, and each gene was targeted by 2 ~ 8 clones (Fig. 1a). Eleven genes, including DLAT, were selected as unexplored lead hits with cisplatin-sensitizing potential and were further evaluated in A549^cisR, H1299, and KB-3-1^cisR, and two acetyltrans ... || HCT116 and HT-29 colon cancer cell lines, MDA-MB231, HeLa, 293T, and KB-3-1^cisR cells were cultured in Dulbecco Modified Eagle Medium (DMEM). The PCI-37B and FaDu cell lines was maintained in DMEM/Ham’s F-12 50/50 mix medium. […] All media contained 100 U/ml penicillin and 100 μg/ml of streptomycin, supplemented with 10% fetal bovine serum. The identity of KB-3-1 and PCI-37B cells were described previously[45],[58],[59]. All other cell lines were from the American Type Culture Collection (ATCC). KB-3-1^cisR and A549^cisR cells w ...

KB-3-1cisR cells [1] = conditions: read-out: cisplatin IC50; KB-3-1cisR cells generated by continuous exposure to cisplatin; cited from earlier work
Procedure: as §1

protein synthesis = assay: Global protein synthesis (O-propargyl-puromycin); type: cell-based, human
Procedure: (§2) Cellular metabolic states were examined through various assays. To gauge the levels of total intracellular or mitochondrial reactive oxygen species (ROS), cells were stained with CM-H2DCFDA or mitoSOX, respectively. Intracellular H2O2, NADPH, acetyl-CoA, and GSH/GSSG ratios were quantified using commercial assay kits as listed in the Reagents. Intracellular ATP levels were determined utilizing the ATP bioluminescent somatic cell assay and normalized to the total protein concentrations. The de novo synthesized RNA and proteins were assessed in cancer cells using commercial assays following the manufacturer’s protocols. In brief, O-propargyl-puromycin or uridine analog, 5-EU, was applied to stop translation or modify RNA. Polypeptides or modified RNA were measured using fluorescent azide with Ex/Em at 494/521 nm. PDC activity was determined by measuring the reduction of NAD+ to NADH during the conversion of pyruvate into acetyl-CoA.

ATP = assay: Intracellular ATP level; type: cell-based, human; parameters: unit not given here
Procedure: as §2

NADPH = NADPH level (NADP/NADPH-Glo); type: cell-based, human
Procedure: as §2, with “acetyl-CoA. […]” for “acetyl-CoA.”
A549cisR (a) and KB-3-1cisR (b) cells were transduced with control or […]
µg/ml; KB-3-1cisR: 5 µg/ml) for 24 h. The GSH/GSSG ratio and relative NADPH levels were measured using GSH/GSSG-Glo Assay and NADP/NADPH-Glo Assay, respectively. Error bars represent SD and are from 4 independent biological replicates for the upper panels of (a,b) and 3 for the lower panels of (a,b). P values were determined by one-way ANOVA.
(1 picture or pasted object on this page, not shown here)

KB-3-1cisR cells [2] = assay: Apoptotic cell death (annexin V/PI staining); type: cell-based, human
[3] = A549cisR, pLKO.1, n=1 (Figure 3B)
[4] = A549cisR, pLKO.1, n=2 (Figure 3B)
[5] = A549cisR, pLKO.1, n=3 (Figure 3B)
[6] = A549cisR, shDLAT, n=1 (Figure 3B)
[7] = A549cisR, shDLAT, n=2 (Figure 3B)
[8] = A549cisR, shDLAT, n=3 (Figure 3B)
[9] = KB-3-1cisR, pLKO.1, n=1 (Figure 3B)
[10] = KB-3-1cisR, pLKO.1, n=2 (Figure 3B)
[11] = KB-3-1cisR, pLKO.1, n=3 (Figure 3B)
[12] = KB-3-1cisR, shDLAT, n=1 (Figure 3B)
[13] = KB-3-1cisR, shDLAT, n=2 (Figure 3B)
[14] = KB-3-1cisR, shDLAT, n=3 (Figure 3B)

N.N.[Cl][Pt][Cl] [cisplatin]
IC50 (A549cisR cells): 17.6 µM
IC50 (KB-3-1cisR cells [1]): 60.5 µM
Global protein synthase (protein synthesis; [3]): 73.5
Global protein synthase (protein synthesis; [4]): 70.6
Global protein synthase (protein synthesis; [5]): 67.1
Global protein synthase (protein synthesis; [6]): 76.2
Global protein synthase (protein synthesis; [7]): 75.5
Global protein synthase (protein synthesis; [8]): 73.3
Global protein synthase (protein synthesis; [9]): 101
Global protein synthase (protein synthesis; [10]): 98.7
Global protein synthase (protein synthesis; [11]): 101
Global protein synthase (protein synthesis; [12]): 92.8
Global protein synthase (protein synthesis; [13]): 100
Global protein synthase (protein synthesis; [14]): 92.4
ATP level (ATP; [3]): 1.319
ATP level (ATP; [4]): 1.28
ATP level (ATP; [5]): 1.1923
ATP level (ATP; [6]): 1.405
ATP level (ATP; [7]): 1.318
ATP level (ATP; [8]): 1.292
ATP level (ATP; [9]): 1.593
ATP level (ATP; [10]): 1.725
ATP level (ATP; [11]): 1.722
ATP level (ATP; [12]): 1.707
ATP level (ATP; [13]): 1.7048
ATP level (ATP; [14]): 1.693
NADPH (NADPH; A549cisR cells, pLKO.1, n=1): 0.7373
NADPH (NADPH; A549cisR cells, pLKO.1, n=2): 0.7802
NADPH (NADPH; A549cisR cells, pLKO.1, n=3): 0.7845
NADPH (NADPH; A549cisR cells, shDLAT, n=1): 0.3926
NADPH (NADPH; A549cisR cells, shDLAT, n=2): 0.3967
NADPH (NADPH; A549cisR cells, shDLAT, n=3): 0.3159
NADPH (NADPH; A549cisR, CTL, sheet Figure 5G, replicate n=1): 0.971
NADPH (NADPH; A549cisR, CTL, sheet Figure 5G, replicate n=2): 0.9727
NADPH (NADPH; A549cisR, CTL, sheet Figure 5G, replicate n=3): 1.056
NADPH (NADPH; A549cisR, shDLAT+Flag-MTHFD2 (K44Q), sheet Figure 5G, replicate n=1): 1.569
NADPH (NADPH; A549cisR, shDLAT+Flag-MTHFD2 (K44Q), sheet Figure 5G, replicate n=2): 1.336
NADPH (NADPH; A549cisR, shDLAT+Flag-MTHFD2 (K44Q), sheet Figure 5G, replicate n=3): 1.475
NADPH (NADPH; A549cisR, shDLAT+Flag-MTHFD2 (K44R), sheet Figure 5G, replicate n=1): 0.5654
NADPH (NADPH; A549cisR, shDLAT+Flag-MTHFD2 (K44R), sheet Figure 5G, replicate n=2): 0.5995
NADPH (NADPH; A549cisR, shDLAT+Flag-MTHFD2 (K44R), sheet Figure 5G, replicate n=3): 0.6728
NADPH (NADPH; A549cisR, shDLAT, sheet Figure 5G, replicate n=1): 0.5978
NADPH (NADPH; A549cisR, shDLAT, sheet Figure 5G, replicate n=2): 0.6166
NADPH (NADPH; A549cisR, shDLAT, sheet Figure 5G, replicate n=3): 0.6336
NADPH (NADPH; KB-3-1cisR cells, pLKO.1, n=1): 0.8565
NADPH (NADPH; KB-3-1cisR cells, pLKO.1, n=2): 0.8236
NADPH (NADPH; KB-3-1cisR cells, pLKO.1, n=3): 0.8268
NADPH (NADPH; KB-3-1cisR cells, shDLAT, n=1): 0.3931
NADPH (NADPH; KB-3-1cisR cells, shDLAT, n=2): 0.4089
NADPH (NADPH; KB-3-1cisR cells, shDLAT, n=3): 0.429
NADPH (NADPH; KB-3-1cisR, CTL, sheet Figure 5G, replicate n=1): 0.9984
NADPH (NADPH; KB-3-1cisR, CTL, sheet Figure 5G, replicate n=2): 0.9855
NADPH (NADPH; KB-3-1cisR, CTL, sheet Figure 5G, replicate n=3): 1.016
NADPH (NADPH; KB-3-1cisR, shDLAT+Flag-MTHFD2 (K44Q), sheet Figure 5G, replicate n=1): 1.788
NADPH (NADPH; KB-3-1cisR, shDLAT+Flag-MTHFD2 (K44Q), sheet Figure 5G, replicate n=2): 1.788
NADPH (NADPH; KB-3-1cisR, shDLAT+Flag-MTHFD2 (K44Q), sheet Figure 5G, replicate n=3): 1.859
NADPH (NADPH; KB-3-1cisR, shDLAT+Flag-MTHFD2 (K44R), sheet Figure 5G, replicate n=1): 0.4153
NADPH (NADPH; KB-3-1cisR, shDLAT+Flag-MTHFD2 (K44R), sheet Figure 5G, replicate n=2): 0.3927
NADPH (NADPH; KB-3-1cisR, shDLAT+Flag-MTHFD2 (K44R), sheet Figure 5G, replicate n=3): 0.4088
NADPH (NADPH; KB-3-1cisR, shDLAT, sheet Figure 5G, replicate n=1): 0.404
NADPH (NADPH; KB-3-1cisR, shDLAT, sheet Figure 5G, replicate n=2): 0.4217
NADPH (NADPH; KB-3-1cisR, shDLAT, sheet Figure 5G, replicate n=3): 0.4378
Apoptotic death (KB-3-1cisR cells [2]; KB-3-1cisR pLKO.1+pLHCX, cisplatin 5 μg/ml, 48 h, n=1-4: biological replicates, listed as cis): 8.39 and 8.75 and 8.86 and 8.83
Apoptotic death (KB-3-1cisR cells [2]; KB-3-1cisR shDLAT+DLAT(WT) rescue, cisplatin 5 μg/ml, 48 h, n=1-4: biological replicates, listed as cis): 6.91 and 7.48 and 7.23
Apoptotic death (KB-3-1cisR cells [2]; KB-3-1cisR, KQ, sheet Figure 6E, replicate n=3): 10
Apoptotic death (KB-3-1cisR cells [2]; KB-3-1cisR, shDLAT, sheet Figure 5F, replicate n=1): 63.6
Apoptotic death (KB-3-1cisR cells [2]; KB-3-1cisR, shDLAT, sheet Figure 5F, replicate n=2): 64.3
